{
  "source": "ChEMBL document CHEMBL3132812",
  "about": "“Metabolism-guided drug design” (Medchemcomm, 2013)",
  "key": {"[1]": {"assay": "Lipophilicity, log D of the compound at pH 7.4", "type": "physicochemical", "settings": "buffer"}, "Trypsin": {"molecular_target": "Trypsin (Homo sapiens, UniProt P07477+P07478+P35030)", "assay": "Inhibition of trypsin (unknown origin)", "type": "protein assay"}, "Prothrombin": {"molecular_target": "Prothrombin (Homo sapiens, UniProt P00734)", "assay": "Inhibition of thrombin (unknown origin)"}, "[2]": {"assay": "Drug metabolism in rat liver microsomes assessed as O-demethylation", "type": "ADME", "settings": "read-out: Drug metabolism"}, "[3]": {"assay": "Drug metabolism in rat liver microsomes assessed as N-demethylation", "type": "ADME", "settings": "read-out: Drug metabolism"}, "[4]": {"assay": "Drug metabolism in rat liver microsomes assessed as oxidative deamination", "type": "ADME", "settings": "read-out: Drug metabolism"}, "[5]": {"assay": "Half life in monkey", "type": "ADME, organism-based, Macaca mulatta", "settings": "rhesus monkey, in vivo"}, "Homo sapiens [6]": {"test_system": "Homo sapiens", "assay": "In vivo inhibition of CYP2D6 in patient assessed as inhibition of dextromethorphan to dextrorphan conversion at 20 to 40 mg, qd relative to control", "type": "ADME, organism-based"}, "[7]": {"assay": "Drug metabolism in human", "type": "ADME, organism-based", "settings": "in vivo, read-out: Drug metabolism"}, "Homo sapiens [8]": {"test_system": "Homo sapiens", "assay": "In vivo inhibition of CYP2D6 in patient at 20 mg, qd relative to control", "type": "ADME, organism-based"}, "[9]": {"assay": "Half life in rat", "type": "ADME, organism-based", "settings": "in vivo"}, "[10]": {"assay": "Half life in human plasma at 600 mg, po", "type": "ADME, organism-based"}},
  "data": [
    {"smiles": "CNS(=O)(=O)Cc1ccc2[nH]cc(CCN(C)C)c2c1", "values": [
      {"measurement": "logD", "setting": "[1]", "value": -1.7}
    ]},
    {"smiles": "Cc1cnc(NCC(F)(F)c2ccccn2)c(=O)n1CC(=O)NCc1ncccc1F", "values": [
      {"measurement": "IC50", "setting": "Trypsin", "value": 252, "unit": "nM"}
    ]},
    {"smiles": "N#Cc1cnc(NCC(F)(F)c2ccccn2)c(=O)n1CC(=O)NCc1ncccc1F", "values": [
      {"measurement": "IC50", "setting": "Trypsin", "value": 213, "unit": "nM"},
      {"measurement": "IC50", "setting": "Prothrombin", "value": 2.3, "unit": "nM"}
    ]},
    {"smiles": "Cc1nc(N)ccc1CNC(=O)Cn1c(C)cnc(NCC(F)(F)c2ccccn2)c1=O", "values": [
      {"measurement": "IC50", "setting": "Trypsin", "value": 800, "unit": "nM"}
    ]},
    {"smiles": "COc1ccc([C@H]2Cc3c(cccc3C(F)(F)F)N(CCN(C)C)C(=O)[C@H]2OC(C)=O)cc1", "values": [
      {"measurement": "metabolised", "setting": "[2]", "value": 8, "unit": "%"},
      {"measurement": "metabolised", "setting": "[3]", "value": 31, "unit": "%"},
      {"measurement": "metabolised", "setting": "[4]", "value": 53, "unit": "%"}
    ]},
    {"smiles": "CC(c1ccoc1)N(O)C(N)=O", "note": "(stereo not drawn)", "values": [
      {"measurement": "half-life", "setting": "[5]", "value": 186, "unit": "min"}
    ]},
    {"smiles": "[3H]C1([3H])Oc2ccc(OC[C@@H]3CNCC[C@H]3c3ccc(F)cc3)cc2O1", "values": [
      {"measurement": "inhibition (INH)", "setting": "Homo sapiens [6]", "value": 15, "unit": "%"}
    ]},
    {"smiles": "[3H]C([3H])([3H])Oc1ccc(C(CN(C([3H])([3H])[3H])C([3H])([3H])[3H])C2(O)CCCCC2)cc1", "note": "(stereo not drawn)", "values": [
      {"measurement": "metabolised", "setting": "[7]", "value": 50, "unit": "%"}
    ]},
    {"smiles": "C[C@H](C#Cc1ccc(Oc2ccc(F)cc2)o1)N(O)C(N)=O", "values": [
      {"measurement": "half-life", "setting": "[5]", "value": 444, "unit": "min"}
    ]},
    {"smiles": "Cc1nc(N)ccc1CNC(=O)Cn1c(C)cnc(NCCc2ccccc2)c1=O", "note": "[L-375378]", "values": [
      {"measurement": "IC50", "setting": "Trypsin", "value": 1800, "unit": "nM"},
      {"measurement": "IC50", "setting": "Prothrombin", "value": 0.8, "unit": "nM"}
    ]},
    {"smiles": "Fc1ccc([C@@H]2CCNC[C@H]2COc2ccc3c(c2)OCO3)cc1", "note": "[PAROXETINE]", "values": [
      {"measurement": "inhibition (INH)", "setting": "Homo sapiens [8]", "value": 55, "unit": "%"}
    ]},
    {"smiles": "CS(=O)(=O)c1ccc(-n2nc(C(F)(F)F)cc2-c2ccc(F)cc2)cc1", "note": "[SC-58125]", "values": [
      {"measurement": "half-life", "setting": "[9]", "value": "> 9.17", "unit": "days"}
    ]},
    {"smiles": "CC(c1cc2ccccc2s1)N(O)C(N)=O", "note": "(stereo not drawn) [ZILEUTON]", "values": [
      {"measurement": "half-life", "setting": "[5]", "value": "< 60", "unit": "min"},
      {"measurement": "half-life", "setting": "[10]", "value": 180, "unit": "min"}
    ]}
  ]
}
